Measurements published in the kinase profiling compilation of Christmann-Franck et al. (2016).

What was measured:
Test in all cases: KINOMEscan competition binding
Settings in all cases: compound 10.0 µM
[1] = test system: KIT (human), P10721 [L576P]
[2] = molecular target: TYK2 JH2 pseudokinase (human) (UniProt P29597)
RIPK1 (human) = RIPK1 (human) (UniProt Q13546)
CAMK4 (human) = CAMK4 (human) (UniProt Q16566)
NUAK2 (human) = NUAK2 (human) (UniProt Q9H093)
ZAP70 (human) = ZAP70 (human) (UniProt P43403)
SYK (human) = SYK (human) (UniProt P43405)
GRK7 (human) = GRK7 (human) (UniProt Q8WTQ7)
CDK11B (human) = CDK11B (human) (UniProt P21127)
PI4KB (human) = PI4KB (human) (UniProt Q9UBF8)
MAPK8 (human) = MAPK8 (human) (UniProt P45983)
Sequence of MAPK8 (human) (P45983 whole entry, looked up): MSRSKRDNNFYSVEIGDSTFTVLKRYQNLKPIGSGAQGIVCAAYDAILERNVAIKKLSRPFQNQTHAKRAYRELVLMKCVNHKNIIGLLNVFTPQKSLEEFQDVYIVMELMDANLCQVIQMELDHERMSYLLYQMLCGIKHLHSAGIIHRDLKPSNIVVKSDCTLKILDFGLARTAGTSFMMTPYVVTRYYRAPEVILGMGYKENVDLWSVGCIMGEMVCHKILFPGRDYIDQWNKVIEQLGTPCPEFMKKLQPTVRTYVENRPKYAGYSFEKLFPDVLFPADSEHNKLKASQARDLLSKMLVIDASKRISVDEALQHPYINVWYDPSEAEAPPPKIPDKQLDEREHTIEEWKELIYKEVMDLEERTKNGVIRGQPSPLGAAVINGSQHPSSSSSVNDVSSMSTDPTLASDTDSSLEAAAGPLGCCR

ANKK1 (human) = ANKK1 (human) (UniProt Q8NFD2)
PIP4K2C (human) = PIP4K2C (human) (UniProt Q8TBX8)
CDC42BPG (human) = CDC42BPG (human) (UniProt Q6DT37)
Sequence of CDC42BPG (human) (Q6DT37 whole entry, looked up): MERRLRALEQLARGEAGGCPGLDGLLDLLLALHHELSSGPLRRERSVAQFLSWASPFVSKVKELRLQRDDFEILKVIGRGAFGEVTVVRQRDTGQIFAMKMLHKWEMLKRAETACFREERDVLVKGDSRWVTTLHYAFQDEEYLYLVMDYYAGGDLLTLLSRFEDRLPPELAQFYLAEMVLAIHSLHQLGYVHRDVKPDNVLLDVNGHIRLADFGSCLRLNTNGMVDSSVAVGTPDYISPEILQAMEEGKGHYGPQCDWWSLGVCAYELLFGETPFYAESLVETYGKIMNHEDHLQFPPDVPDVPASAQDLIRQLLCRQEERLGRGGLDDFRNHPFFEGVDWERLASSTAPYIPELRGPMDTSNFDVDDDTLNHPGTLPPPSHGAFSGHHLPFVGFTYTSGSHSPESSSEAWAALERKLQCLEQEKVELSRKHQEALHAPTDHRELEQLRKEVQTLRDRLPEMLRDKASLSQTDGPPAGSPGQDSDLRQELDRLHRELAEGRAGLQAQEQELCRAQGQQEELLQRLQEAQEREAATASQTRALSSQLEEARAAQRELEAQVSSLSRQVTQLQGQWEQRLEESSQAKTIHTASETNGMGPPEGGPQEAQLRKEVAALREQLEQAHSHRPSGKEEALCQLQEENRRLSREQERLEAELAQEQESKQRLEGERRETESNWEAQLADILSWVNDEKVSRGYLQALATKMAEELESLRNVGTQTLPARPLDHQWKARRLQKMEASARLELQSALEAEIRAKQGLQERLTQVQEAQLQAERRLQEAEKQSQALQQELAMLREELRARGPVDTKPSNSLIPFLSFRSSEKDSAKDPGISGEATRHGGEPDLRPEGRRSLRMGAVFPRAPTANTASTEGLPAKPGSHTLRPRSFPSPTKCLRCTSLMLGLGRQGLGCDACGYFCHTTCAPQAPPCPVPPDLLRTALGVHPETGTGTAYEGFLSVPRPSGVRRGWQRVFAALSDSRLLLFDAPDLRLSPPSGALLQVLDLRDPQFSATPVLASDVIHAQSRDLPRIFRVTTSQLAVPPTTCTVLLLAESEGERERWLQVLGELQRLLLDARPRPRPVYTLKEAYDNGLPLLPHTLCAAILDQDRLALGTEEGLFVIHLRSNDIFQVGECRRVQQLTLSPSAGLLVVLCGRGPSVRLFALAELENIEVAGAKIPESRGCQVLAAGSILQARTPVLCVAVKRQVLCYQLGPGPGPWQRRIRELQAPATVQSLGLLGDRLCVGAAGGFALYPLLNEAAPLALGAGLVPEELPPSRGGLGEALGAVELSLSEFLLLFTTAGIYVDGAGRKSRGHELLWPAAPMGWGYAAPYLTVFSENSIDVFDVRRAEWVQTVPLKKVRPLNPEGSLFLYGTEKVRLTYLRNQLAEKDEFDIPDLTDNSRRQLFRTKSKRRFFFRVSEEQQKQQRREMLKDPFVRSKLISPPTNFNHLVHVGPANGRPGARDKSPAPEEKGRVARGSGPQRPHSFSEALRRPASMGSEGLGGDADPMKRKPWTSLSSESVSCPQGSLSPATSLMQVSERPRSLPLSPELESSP

MARK4 (human) = MARK4 (human) (UniProt Q96L34)
IRAK3 (human) = IRAK3 (human) (UniProt Q9Y616)
LRRK2 (human) = LRRK2 (human) (UniProt Q5S007)
ERN1 (human) = ERN1 (human) (UniProt O75460)
IKBKB (human) = IKBKB (human) (UniProt O14920)
Sequence of IKBKB (human) (O14920 whole entry, looked up): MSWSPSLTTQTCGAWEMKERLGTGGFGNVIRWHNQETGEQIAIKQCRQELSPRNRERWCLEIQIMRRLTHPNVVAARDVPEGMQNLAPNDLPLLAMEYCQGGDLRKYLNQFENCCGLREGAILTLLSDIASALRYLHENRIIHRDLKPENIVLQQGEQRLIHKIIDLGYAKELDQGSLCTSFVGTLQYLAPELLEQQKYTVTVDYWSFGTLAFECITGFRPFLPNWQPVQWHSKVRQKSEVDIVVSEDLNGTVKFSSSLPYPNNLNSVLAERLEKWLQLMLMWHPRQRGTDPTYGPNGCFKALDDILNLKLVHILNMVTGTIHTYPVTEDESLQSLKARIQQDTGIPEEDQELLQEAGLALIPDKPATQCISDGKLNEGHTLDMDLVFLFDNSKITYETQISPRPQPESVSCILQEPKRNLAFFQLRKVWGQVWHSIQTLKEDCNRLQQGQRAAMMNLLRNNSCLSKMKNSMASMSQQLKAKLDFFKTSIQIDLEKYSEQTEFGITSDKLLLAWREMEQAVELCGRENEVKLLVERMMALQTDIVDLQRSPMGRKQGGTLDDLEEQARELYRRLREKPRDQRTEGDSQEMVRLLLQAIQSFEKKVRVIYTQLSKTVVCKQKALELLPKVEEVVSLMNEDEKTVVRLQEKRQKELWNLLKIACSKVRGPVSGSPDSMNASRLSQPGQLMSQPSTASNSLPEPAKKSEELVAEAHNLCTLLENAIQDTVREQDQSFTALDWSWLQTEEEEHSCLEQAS

MTOR (human) = MTOR (human) (UniProt P42345)
MAP2K1 (human) = MAP2K1 (human) (UniProt Q02750)
Sequence of MAP2K1 (human) (Q02750 whole entry, looked up): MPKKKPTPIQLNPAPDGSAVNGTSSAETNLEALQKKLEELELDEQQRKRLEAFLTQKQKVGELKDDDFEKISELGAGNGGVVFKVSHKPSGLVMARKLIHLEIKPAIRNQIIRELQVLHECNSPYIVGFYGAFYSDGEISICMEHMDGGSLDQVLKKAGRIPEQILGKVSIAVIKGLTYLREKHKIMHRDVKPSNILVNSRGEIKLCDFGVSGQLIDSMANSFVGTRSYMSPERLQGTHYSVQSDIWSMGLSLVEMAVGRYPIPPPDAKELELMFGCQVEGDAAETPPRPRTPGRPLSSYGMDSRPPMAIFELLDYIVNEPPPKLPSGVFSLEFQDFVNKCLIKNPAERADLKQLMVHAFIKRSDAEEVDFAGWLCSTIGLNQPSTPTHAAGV

PIK3CG (human) = PIK3CG (human) (UniProt P48736)
DYRK1B (human) = DYRK1B (human) (UniProt Q9Y463)
PLK2 (human) = PLK2 (human) (UniProt Q9NYY3)
EPHA5 (human) = EPHA5 (human) (UniProt P54756)
STK17B (human) = STK17B (human) (UniProt O94768)
Sequence of STK17B (human) (O94768 whole entry, looked up): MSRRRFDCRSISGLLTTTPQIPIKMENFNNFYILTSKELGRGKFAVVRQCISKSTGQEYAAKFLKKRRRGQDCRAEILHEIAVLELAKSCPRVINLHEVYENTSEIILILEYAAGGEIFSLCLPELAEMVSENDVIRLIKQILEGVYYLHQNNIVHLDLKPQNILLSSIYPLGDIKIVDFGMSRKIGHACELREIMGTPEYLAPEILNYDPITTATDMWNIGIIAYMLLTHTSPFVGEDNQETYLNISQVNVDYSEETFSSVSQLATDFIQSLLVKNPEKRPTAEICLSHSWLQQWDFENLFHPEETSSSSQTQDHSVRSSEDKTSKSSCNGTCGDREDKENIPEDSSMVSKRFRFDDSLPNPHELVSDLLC

MATK (human) = MATK (human) (UniProt P42679)
PAK7 (human) = PAK7 (human) (UniProt Q9P286)
Sequence of PAK7 (human) (Q9P286 whole entry, looked up): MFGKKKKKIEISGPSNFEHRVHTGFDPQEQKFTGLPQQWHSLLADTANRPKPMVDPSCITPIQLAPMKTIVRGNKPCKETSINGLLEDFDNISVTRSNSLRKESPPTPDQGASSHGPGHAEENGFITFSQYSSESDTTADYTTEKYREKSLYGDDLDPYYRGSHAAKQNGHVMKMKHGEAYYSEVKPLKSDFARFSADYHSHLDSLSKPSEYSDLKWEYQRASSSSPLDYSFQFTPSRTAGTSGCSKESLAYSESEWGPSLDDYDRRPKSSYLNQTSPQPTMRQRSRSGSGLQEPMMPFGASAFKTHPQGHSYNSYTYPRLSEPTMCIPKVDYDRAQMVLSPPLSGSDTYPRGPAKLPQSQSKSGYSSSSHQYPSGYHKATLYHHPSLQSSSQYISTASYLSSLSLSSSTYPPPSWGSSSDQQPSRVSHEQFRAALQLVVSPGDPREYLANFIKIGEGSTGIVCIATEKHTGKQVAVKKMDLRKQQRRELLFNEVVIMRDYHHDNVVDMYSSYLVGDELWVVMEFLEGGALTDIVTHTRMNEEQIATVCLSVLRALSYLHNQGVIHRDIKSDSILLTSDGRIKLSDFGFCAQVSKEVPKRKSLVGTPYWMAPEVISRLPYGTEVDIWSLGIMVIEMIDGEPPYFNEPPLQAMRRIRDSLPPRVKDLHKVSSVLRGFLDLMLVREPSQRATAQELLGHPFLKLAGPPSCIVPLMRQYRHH

DAPK3 (human) = DAPK3 (human) (UniProt O43293)
EPHB1 (human) = EPHB1 (human) (UniProt P54762)
SBK1 (human) = SBK1 (human) (UniProt Q52WX2)
EPHA1 (human) = EPHA1 (human) (UniProt P21709)
HIPK4 (human) = HIPK4 (human) (UniProt Q8NE63)
DCLK1 (human) = DCLK1 (human) (UniProt O15075)
PRKCI (human) = PRKCI (human) (UniProt P41743)
CSNK2A2 (human) = CSNK2A2 (human) (UniProt P19784)
Sequence of CSNK2A2 (human) (P19784 whole entry, looked up): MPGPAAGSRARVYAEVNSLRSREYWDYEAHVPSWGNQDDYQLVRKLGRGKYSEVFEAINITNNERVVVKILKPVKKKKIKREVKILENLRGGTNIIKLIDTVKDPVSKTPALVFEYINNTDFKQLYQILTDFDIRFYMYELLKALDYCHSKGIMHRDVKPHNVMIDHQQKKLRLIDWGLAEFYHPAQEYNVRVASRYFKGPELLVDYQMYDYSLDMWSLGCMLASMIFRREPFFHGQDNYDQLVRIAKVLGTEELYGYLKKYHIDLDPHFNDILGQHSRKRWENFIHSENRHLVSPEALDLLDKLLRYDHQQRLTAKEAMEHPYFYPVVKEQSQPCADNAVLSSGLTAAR

MAP2K7 (human) = MAP2K7 (human) (UniProt O14733)
Sequence of MAP2K7 (human) (O14733 whole entry, looked up): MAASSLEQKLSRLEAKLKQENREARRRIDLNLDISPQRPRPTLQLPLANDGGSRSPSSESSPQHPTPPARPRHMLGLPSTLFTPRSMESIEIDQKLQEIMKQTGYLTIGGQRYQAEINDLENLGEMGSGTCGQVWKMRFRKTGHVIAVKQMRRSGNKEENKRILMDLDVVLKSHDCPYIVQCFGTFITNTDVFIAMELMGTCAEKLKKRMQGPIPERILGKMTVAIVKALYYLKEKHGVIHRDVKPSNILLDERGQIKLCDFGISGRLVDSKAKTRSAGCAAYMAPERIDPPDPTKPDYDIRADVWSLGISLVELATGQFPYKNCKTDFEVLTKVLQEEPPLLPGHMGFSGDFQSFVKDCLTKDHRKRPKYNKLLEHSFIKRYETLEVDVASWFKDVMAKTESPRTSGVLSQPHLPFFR

MAP3K3 (human) = MAP3K3 (human) (UniProt Q99759)

Q: How did the kinase still bound, per cent of control [1] turn out when `O=C1NC(=O)/C(=C/c2ccc3nccc(-c4ccncc4)c3c2)S1` was run?
A: 34%

Q: And the kinase still bound, per cent of control [2]?
A: 51%

Q: And the kinase still bound, per cent of control (RIPK1 (human))?
A: 100%

Q: What about the kinase still bound, per cent of control (CAMK4 (human)) of the same molecule?
A: 100%

Q: And the kinase still bound, per cent of control (NUAK2 (human))?
A: 36%

Q: What about the kinase still bound, per cent of control (ZAP70 (human)) of the same molecule?
A: 93%

Q: And the kinase still bound, per cent of control (SYK (human))?
A: 62%

Q: And the kinase still bound, per cent of control (GRK7 (human))?
A: 5.4%

Q: What about the kinase still bound, per cent of control (CDK11B (human)) of the same molecule?
A: 95%

Q: What about the kinase still bound, per cent of control (PI4KB (human)) of the same molecule?
A: 0.4%

Q: What about the kinase still bound, per cent of control (MAPK8 (human)) of the same molecule?
A: 18%

Q: And the kinase still bound, per cent of control (ANKK1 (human))?
A: 47%

Q: And the kinase still bound, per cent of control (PIP4K2C (human))?
A: 3.2%

Q: What about the kinase still bound, per cent of control (CDC42BPG (human)) of the same molecule?
A: 90%

Q: And the kinase still bound, per cent of control (MARK4 (human))?
A: 89%

Q: And the kinase still bound, per cent of control (IRAK3 (human))?
A: 14%

Q: And the kinase still bound, per cent of control (LRRK2 (human))?
A: 62%

Q: What about the kinase still bound, per cent of control (ERN1 (human)) of the same molecule?
A: 66%

Q: What about the kinase still bound, per cent of control (IKBKB (human)) of the same molecule?
A: 34%

Q: What about the kinase still bound, per cent of control (MTOR (human)) of the same molecule?
A: 5%

Q: And the kinase still bound, per cent of control (MAP2K1 (human))?
A: 1.8%

Q: And the kinase still bound, per cent of control (PIK3CG (human))?
A: 0%

Q: What about the kinase still bound, per cent of control (DYRK1B (human)) of the same molecule?
A: 1.2%

Q: And the kinase still bound, per cent of control (PLK2 (human))?
A: 29%

Q: And the kinase still bound, per cent of control (EPHA5 (human))?
A: 91%

Q: And the kinase still bound, per cent of control (STK17B (human))?
A: 0.6%

Q: And the kinase still bound, per cent of control (MATK (human))?
A: 50%

Q: What about the kinase still bound, per cent of control (PAK7 (human)) of the same molecule?
A: 91%

Q: What about the kinase still bound, per cent of control (DAPK3 (human)) of the same molecule?
A: 0.6%

Q: And the kinase still bound, per cent of control (EPHB1 (human))?
A: 90%

Q: And the kinase still bound, per cent of control (SBK1 (human))?
A: 73%

Q: What about the kinase still bound, per cent of control (EPHA1 (human)) of the same molecule?
A: 85%

Q: What about the kinase still bound, per cent of control (HIPK4 (human)) of the same molecule?
A: 3.8%

Q: And the kinase still bound, per cent of control (DCLK1 (human))?
A: 77%

Q: And the kinase still bound, per cent of control (PRKCI (human))?
A: 67%

Q: What about the kinase still bound, per cent of control (CSNK2A2 (human)) of the same molecule?
A: 1.2%

Q: And the kinase still bound, per cent of control (MAP2K7 (human))?
A: 38%

Q: And the kinase still bound, per cent of control (MAP3K3 (human))?
A: 75%

Q: Which kinase still bound, per cent of control [2] does the source give for `NC(=O)Nc1cc(-c2cccc(F)c2)sc1C(=O)N[C@@H]1CCCNC1` here?
A: 3.2%

Q: What about the kinase still bound, per cent of control (RIPK1 (human)) of the same molecule?
A: 100%

Q: And the kinase still bound, per cent of control (CAMK4 (human))?
A: 0.15%

Q: What about the kinase still bound, per cent of control (NUAK2 (human)) of the same molecule?
A: 2.2%

Q: What about the kinase still bound, per cent of control (ZAP70 (human)) of the same molecule?
A: 0%

Q: And the kinase still bound, per cent of control (SYK (human))?
A: 0.05%

Q: And the kinase still bound, per cent of control (GRK7 (human))?
A: 0.15%

Q: And the kinase still bound, per cent of control (CDK11B (human))?
A: 100%

Q: And the kinase still bound, per cent of control (PI4KB (human))?
A: 100%

Q: And the kinase still bound, per cent of control (MAPK8 (human))?
A: 29%

Q: And the kinase still bound, per cent of control (ANKK1 (human))?
A: 1.2%

Q: And the kinase still bound, per cent of control (PIP4K2C (human))?
A: 87%

Q: And the kinase still bound, per cent of control (CDC42BPG (human))?
A: 72%

Q: What about the kinase still bound, per cent of control (MARK4 (human)) of the same molecule?
A: 2.2%

Q: And the kinase still bound, per cent of control (IRAK3 (human))?
A: 6.4%

Q: And the kinase still bound, per cent of control (LRRK2 (human))?
A: 4%

Q: What about the kinase still bound, per cent of control (ERN1 (human)) of the same molecule?
A: 25%

Q: And the kinase still bound, per cent of control (IKBKB (human))?
A: 2.5%

Q: And the kinase still bound, per cent of control (MTOR (human))?
A: 72%

Q: What about the kinase still bound, per cent of control (MAP2K1 (human)) of the same molecule?
A: 0%

Q: What about the kinase still bound, per cent of control (PIK3CG (human)) of the same molecule?
A: 100%

Q: What about the kinase still bound, per cent of control (DYRK1B (human)) of the same molecule?
A: 1.8%

Q: What about the kinase still bound, per cent of control (PLK2 (human)) of the same molecule?
A: 40%

Q: And the kinase still bound, per cent of control (EPHA5 (human))?
A: 4.8%

Q: What about the kinase still bound, per cent of control (STK17B (human)) of the same molecule?
A: 2%

Q: What about the kinase still bound, per cent of control (MATK (human)) of the same molecule?
A: 34%

Q: What about the kinase still bound, per cent of control (PAK7 (human)) of the same molecule?
A: 0%

Q: What about the kinase still bound, per cent of control (DAPK3 (human)) of the same molecule?
A: 2.9%

Q: And the kinase still bound, per cent of control (EPHB1 (human))?
A: 1.6%

Q: What about the kinase still bound, per cent of control (SBK1 (human)) of the same molecule?
A: 0%

Q: What about the kinase still bound, per cent of control (EPHA1 (human)) of the same molecule?
A: 1.4%

Q: What about the kinase still bound, per cent of control (HIPK4 (human)) of the same molecule?
A: 38%

Q: What about the kinase still bound, per cent of control (DCLK1 (human)) of the same molecule?
A: 2.4%

Q: And the kinase still bound, per cent of control (PRKCI (human))?
A: 11%

Q: And the kinase still bound, per cent of control (CSNK2A2 (human))?
A: 5.9%

Q: What about the kinase still bound, per cent of control (MAP2K7 (human)) of the same molecule?
A: 80%

Q: And the kinase still bound, per cent of control (MAP3K3 (human))?
A: 0%

Q: `COCC(=O)NC/C=C/c1ccc2ncnc(Nc3ccc(Oc4ccc(C)nc4)c(C)c3)c2c1` was tested. Which kinase still bound, per cent of control [1] did it give?
A: 54%

Q: What about the kinase still bound, per cent of control [2] of the same molecule?
A: 24%

Q: What about the kinase still bound, per cent of control (RIPK1 (human)) of the same molecule?
A: 100%

Q: And the kinase still bound, per cent of control (CAMK4 (human))?
A: 86%

Q: And the kinase still bound, per cent of control (NUAK2 (human))?
A: 100%

Q: What about the kinase still bound, per cent of control (ZAP70 (human)) of the same molecule?
A: 100%

Q: What about the kinase still bound, per cent of control (SYK (human)) of the same molecule?
A: 100%

Q: What about the kinase still bound, per cent of control (GRK7 (human)) of the same molecule?
A: 100%

Q: What about the kinase still bound, per cent of control (CDK11B (human)) of the same molecule?
A: 100%

Q: And the kinase still bound, per cent of control (PI4KB (human))?
A: 100%

Q: And the kinase still bound, per cent of control (MAPK8 (human))?
A: 66%

Q: What about the kinase still bound, per cent of control (ANKK1 (human)) of the same molecule?
A: 60%

Q: What about the kinase still bound, per cent of control (PIP4K2C (human)) of the same molecule?
A: 84%

Q: What about the kinase still bound, per cent of control (CDC42BPG (human)) of the same molecule?
A: 90%

Q: What about the kinase still bound, per cent of control (MARK4 (human)) of the same molecule?
A: 100%

Q: And the kinase still bound, per cent of control (IRAK3 (human))?
A: 82%

Q: And the kinase still bound, per cent of control (LRRK2 (human))?
A: 100%

Q: And the kinase still bound, per cent of control (ERN1 (human))?
A: 82%

Q: What about the kinase still bound, per cent of control (IKBKB (human)) of the same molecule?
A: 100%

Q: And the kinase still bound, per cent of control (MTOR (human))?
A: 79%

Q: What about the kinase still bound, per cent of control (MAP2K1 (human)) of the same molecule?
A: 9.4%

Q: And the kinase still bound, per cent of control (PIK3CG (human))?
A: 100%

Q: And the kinase still bound, per cent of control (DYRK1B (human))?
A: 92%

Q: What about the kinase still bound, per cent of control (PLK2 (human)) of the same molecule?
A: 100%

Q: What about the kinase still bound, per cent of control (EPHA5 (human)) of the same molecule?
A: 100%

Q: And the kinase still bound, per cent of control (STK17B (human))?
A: 100%

Q: And the kinase still bound, per cent of control (MATK (human))?
A: 100%

Q: And the kinase still bound, per cent of control (PAK7 (human))?
A: 87%

Q: What about the kinase still bound, per cent of control (DAPK3 (human)) of the same molecule?
A: 96%

Q: What about the kinase still bound, per cent of control (EPHB1 (human)) of the same molecule?
A: 100%

Q: And the kinase still bound, per cent of control (SBK1 (human))?
A: 100%

Q: And the kinase still bound, per cent of control (EPHA1 (human))?
A: 88%

Q: And the kinase still bound, per cent of control (HIPK4 (human))?
A: 95%

Q: What about the kinase still bound, per cent of control (DCLK1 (human)) of the same molecule?
A: 100%

Q: And the kinase still bound, per cent of control (PRKCI (human))?
A: 93%

Q: And the kinase still bound, per cent of control (CSNK2A2 (human))?
A: 100%

Q: What about the kinase still bound, per cent of control (MAP2K7 (human)) of the same molecule?
A: 100%

Q: What about the kinase still bound, per cent of control (MAP3K3 (human)) of the same molecule?
A: 100%
